Results on seven molecules are retold here after PMC9078399, “Discovery of N-cyclobutylaminoethoxyisoxazole derivatives as novel sigma-1 receptor ligands with neurite outgrowth efficacy in cells” (RSC Advances, 2018).

Experiment [1] has as its target σ1 receptor. More on the design: method as in PMID 21278085, PMID 15170821, PMID 18647636, PMID 22935988, PMID 21967807. The following applies: representative σ1 receptor ligands, Fig. 1; cited from earlier work.
For experiment [2], the target named is SERT: serotonin transporter (Homo sapiens, UniProt P31645). More on the design: method as in PMID 27309376. The following applies: [3H] citalopram; literature values; cited from earlier work.
Sequence of SERT: serotonin transporter (P31645 whole entry): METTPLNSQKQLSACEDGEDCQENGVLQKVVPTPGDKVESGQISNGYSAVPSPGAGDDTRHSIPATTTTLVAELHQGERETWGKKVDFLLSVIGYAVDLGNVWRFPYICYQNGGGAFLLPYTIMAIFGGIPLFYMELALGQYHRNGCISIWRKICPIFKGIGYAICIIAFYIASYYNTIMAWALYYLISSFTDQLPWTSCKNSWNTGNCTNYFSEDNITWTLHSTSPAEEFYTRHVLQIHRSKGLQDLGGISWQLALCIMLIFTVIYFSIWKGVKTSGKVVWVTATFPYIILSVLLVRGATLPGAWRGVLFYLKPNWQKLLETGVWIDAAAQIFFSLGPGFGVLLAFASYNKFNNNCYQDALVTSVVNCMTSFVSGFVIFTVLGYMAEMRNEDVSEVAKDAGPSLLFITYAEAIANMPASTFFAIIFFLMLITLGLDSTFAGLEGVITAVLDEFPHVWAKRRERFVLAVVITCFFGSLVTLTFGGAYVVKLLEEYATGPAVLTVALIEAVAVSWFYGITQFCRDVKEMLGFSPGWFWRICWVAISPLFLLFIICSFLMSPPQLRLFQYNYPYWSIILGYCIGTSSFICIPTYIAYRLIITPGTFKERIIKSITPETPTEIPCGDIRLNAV
The test system of experiment [3] is PC12 cells. Put plainly: NGF-induced neurite outgrowth in PC-12 cells. The format is cell-based, rat. The conditions noted are these: 10 μM compound with NGF 2.5 ng mL−1, four days. The protocol: PC-12 cells, from rat pheochromocytoma cell lines, were obtained from the American Type Culture Collection (ATCC, Manassas, VA, USA). Undifferentiated PC12 cells were cultured in DMEM complete medium with 10% heat-inactivated horse serum, 5% fetal bovine serum, 100 U mL^−1 penicillin, and 100 μg mL^−1 streptomycin and maintained at 37 °C in a humidified incubator supplemented with 5% CO2. To induce differentiation, PC12 cells were seeded at a density of 1 × 10^4 cells per mL on a poly-L-lysine-coated 96-well plate and cultured in complete medium containing 2.5 ng mL^−1 NGF or different tested compounds (10 μM) concomitant with 2.5 ng mL^−1 NGF administration. Four days after incubation, morphometric analysis was performed on digitized images of live cells taken under phase contrast illumination with an inverted microscope linked to a camera. Images of five fields per well were taken with an average of 20 cells per field. The number of differentiated cells was determined by counting cells that had at least one neurite with a length equal to the cell body diameter and was expressed as a percentage of the total cells in the field. The counting was performed in a blinded manner. All experiments were performed at least five times.

The target in experiment [4] is T1, DAT: dopamine transporter (Homo sapiens, UniProt Q01959). More on the design: method as in PMID 27309376. The conditions noted are these: [3H] WIN35428; literature values; cited from earlier work.
T1 sequence (Q01959 whole entry): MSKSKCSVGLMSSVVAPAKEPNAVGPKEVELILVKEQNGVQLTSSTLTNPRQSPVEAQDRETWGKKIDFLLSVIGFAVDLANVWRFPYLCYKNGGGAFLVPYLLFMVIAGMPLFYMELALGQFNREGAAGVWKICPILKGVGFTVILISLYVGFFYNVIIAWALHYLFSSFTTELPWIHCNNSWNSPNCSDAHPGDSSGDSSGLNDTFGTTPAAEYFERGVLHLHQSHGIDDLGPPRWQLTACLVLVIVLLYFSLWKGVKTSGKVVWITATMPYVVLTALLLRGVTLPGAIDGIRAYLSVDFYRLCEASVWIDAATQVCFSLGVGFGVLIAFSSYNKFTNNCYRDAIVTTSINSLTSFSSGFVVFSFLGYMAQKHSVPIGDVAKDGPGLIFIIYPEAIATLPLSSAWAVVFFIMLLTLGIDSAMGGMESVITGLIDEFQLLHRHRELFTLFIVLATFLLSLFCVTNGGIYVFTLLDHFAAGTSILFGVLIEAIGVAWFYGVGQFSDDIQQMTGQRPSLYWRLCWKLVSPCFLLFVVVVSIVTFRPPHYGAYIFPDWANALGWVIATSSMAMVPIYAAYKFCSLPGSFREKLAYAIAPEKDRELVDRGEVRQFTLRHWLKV
Experiment [5] addresses T2, σ1 receptor (Cavia porcellus, UniProt Q60492).
T2 construct: σ1 receptor, [^3H]-(+)-pentazocine, Guinea pig brain homogenate; from tissue; host or cells: Guinea pig brain homogenate
More on the design: method as in PMID 27309376. The conditions noted are these: [3H]-(+)-pentazocine; Guinea pig homogenate; compound 7 value from the literature; cited from earlier work.

Experiment [6] deals with T2, σ1 receptor. Put plainly: Radioligand binding at σ1 receptor ([3H]-(+)-pentazocine, NIMH PDSP). The conditions noted are these: for Selectivity (Ki σ2/Ki σ1): ratio of Ki σ2 to Ki σ1. More on the design: species or system Guinea pig. From the text:
(§1) In this study, [^3H] pentazocine and [^3H]DTG (6) were used as the radioligands at σ1 and σ2 receptors. Firstly, we examined the effects of changing the substituents on the benzene ring. […] Mono-halogen substitution on the benzene ring exemplified by compounds 17–20 generally retained affinity for σ1 receptor compared with compound 7. […] The derivatives 21–25 also maintained similar high affinities for the σ1 receptor upon incorporation of two halogen atoms on the benzene ring. However, this is also accompanied with higher binding affinity to the σ2 receptor. […]. Next, we examined the effects of removing the methyl group on the basic nitrogen atom. […] […]. […] The results for the secondary amines 28 and 29 indicate that the hydrogen bond donor on basic nitrogen atom was beneficial for increased binding affinity to the σ1 receptor.
(§2) Radioligand competition studies were carried out by the National Institute of Mental Health's Psychoactive Drug Screening Program, Contract #HHSN-271-2008-00025-C (NIMH PDSP). The general procedures are listed as follows:
(§3) All the test compounds solution (1 mg mL^−1) were prepared by dissolving in DMSO or buffer solvent (50 mM Tris–HCl, pH = 8.0). The filter-mats were presoaked in 0.5% aqueous polyethyleneimine solution for 2 h at rt before use. All binding experiments were carried out in poly-L-lysine-coated 96-well plate and the final test concentration (50 μM, 5 μM, 1.5 μM, 500 nM, 150 nM, 50 nM, 15 nM, 5 nM, 1.5 nM, 0.5 nM, 0.05 nM) were prepared by addition of Tris–HCl solution (50 mM, pH = 8.0). The following specific radioligands and tissue source were used: (a) σ1 receptor, [^3H]-(+)-pentazocine, Guinea pig brain homogenate; (b) σ2 receptor, [^3H]-DTG, PC-12 cells. 100 μL of corresponding radioligand solution, 100 μL test compound solution and 50 μL of the respective receptor preparation into each well of the plate (total volume 250 μL). During the incubation, the plates were shaken at a speed of 500–600 rpm at the specified temperature (σ1 receptor, 37 °C, 150 min; σ2 receptor, rt, 120 min). The incubation was followed by a rapid vacuum filtration through Whatman GF/B glass filters, and the filtrates were washed twice with 10 mL of cold buffer and transferred to the 6 mL scintillation vials. EcoScint scintillation fluid (4.0 mL) was added, and the radioactivity bound was measured using a Beckman LS 6500 liquid scintillation counter. All experiments were performed at least three times.
(§4) For experimental details please refer to the PDSP website http://pdsp.med.unc.edu/.[28]

For experiment [7], the target named is T3, NET: norepinephrine transporter (Homo sapiens, UniProt P23975). More on the design: method as in PMID 27309376. The following applies: [3H] nisoxetine; literature values; cited from earlier work.
T3 sequence (P23975 whole entry): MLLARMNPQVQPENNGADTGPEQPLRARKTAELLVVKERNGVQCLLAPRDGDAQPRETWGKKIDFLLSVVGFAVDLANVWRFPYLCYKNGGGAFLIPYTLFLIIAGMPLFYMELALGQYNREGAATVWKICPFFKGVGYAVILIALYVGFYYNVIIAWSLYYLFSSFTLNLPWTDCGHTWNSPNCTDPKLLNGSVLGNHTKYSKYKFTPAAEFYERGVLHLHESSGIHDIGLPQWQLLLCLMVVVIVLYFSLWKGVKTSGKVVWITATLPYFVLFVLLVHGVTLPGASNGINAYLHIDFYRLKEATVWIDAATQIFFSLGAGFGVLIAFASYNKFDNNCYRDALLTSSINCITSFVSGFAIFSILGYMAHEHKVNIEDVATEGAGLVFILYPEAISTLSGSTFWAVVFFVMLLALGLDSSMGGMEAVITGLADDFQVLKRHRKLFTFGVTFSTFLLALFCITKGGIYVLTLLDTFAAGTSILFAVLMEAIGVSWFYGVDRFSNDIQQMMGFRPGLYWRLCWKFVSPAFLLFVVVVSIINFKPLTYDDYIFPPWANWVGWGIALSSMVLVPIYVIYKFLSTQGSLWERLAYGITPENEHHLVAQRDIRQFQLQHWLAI
Experiment [8] addresses T3, NET: norepinephrine transporter. Put plainly: Radioligand binding at NET ([3H] nisoxetine). On the procedure: (§5) In order to exclude the potential interference of other receptor pathways to the observed neuritogenesis efficacy, we assessed the binding affinities of compounds 7, 18, 22, 24, 25, 28 and 29 at the biogenic amine transporters (NET, DAT, and SERT).
as §2, §4

For experiment [9], the target named is T4, σ2 receptor (Rattus norvegicus, UniProt Q5U3Y7).
T4 construct: (b) σ2 receptor, [^3H]-DTG, PC-12 cells; endogenous in cells; host or cells: PC-12 cells
T4 sequence (Q5U3Y7 1-176): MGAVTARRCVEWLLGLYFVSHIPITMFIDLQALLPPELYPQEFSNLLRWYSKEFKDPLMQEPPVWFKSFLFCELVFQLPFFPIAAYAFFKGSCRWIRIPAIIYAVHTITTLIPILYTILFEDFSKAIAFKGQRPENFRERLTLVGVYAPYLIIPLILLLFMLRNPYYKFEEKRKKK
Put plainly: Radioligand binding at σ2 receptor ([3H]-DTG, NIMH PDSP). The conditions noted are these: [3H] DTG; PC12 cells; mean ± SEM, three independent experiments.
Text: as §1, §2, §3, §4

Experiment [10] has as its system N1E-115 neuronal cells. Put plainly: Neurite outgrowth in N1E-115 cells. The conditions noted are these: 10 μM in DMSO, four days, vs. vehicle (DMSO). Format: cell-based, mouse. On the procedure:
Following the radioligand binding studies and CNS MPO calculations, all of the synthesized derivatives were further tested in cellular neuritogenesis studies. In this study, N1E-115 neuronal cells were used as a screening platform for assessing the neuritogenesis effects of candidate compounds.[31,32] All the derivatives and positive control (compound 7 and RC-33) were assessed at 10 μM concentration in DMSO, and vehicle group using DMSO alone.
N1E-115 cells, the mouse neuroblastoma cell lines, were obtained from the American Type Culture Collection (ATCC, Manassas, VA, USA). Undifferentiated N1E115 cells were cultured in DMEM complete medium with 10% fetal bovine serum, 100 U mL^−1 of penicillin, and 100 μg mL^−1 of streptomycin and maintained at 37 °C in a humidified incubator supplemented with 5% CO2. N1E-115 cells were seeded at a density of 1 × 10^4 cells per mL on poly-L-lysine-coated 96-well plates and grown with DMSO or different tested compounds (10 μM) in DMSO solution for four days. Four days after incubation, morphometric analysis was performed on digitized images of live cells taken under phase contrast illumination with an inverted microscope linked to a camera. Images of five fields per well were taken with an average of 100 cells per field. Cells that had at least one neurite with a length that was twice as long as the body diameter were expressed as a percentage of the total cells in the field. The counting was performed in a blinded manner. All experiments were performed at least five times.

Experiment [11] has as its target T1, DAT: dopamine transporter. Kind of experiment: Radioligand binding at DAT ([3H] WIN35428). The protocol: as §5, §2, §4
Experiment [12] has as its target σ2 receptor. More on the design: method as in PMID 21278085, PMID 15170821, PMID 18647636, PMID 22935988, PMID 21967807. The following applies: representative σ1 receptor ligands, Fig. 1; cited from earlier work.

Entries after “also recorded” stand apart in the source; their conditions may differ. Where two headings read alike, the source gives them in different places.

T2 sequence (Q60492 whole entry): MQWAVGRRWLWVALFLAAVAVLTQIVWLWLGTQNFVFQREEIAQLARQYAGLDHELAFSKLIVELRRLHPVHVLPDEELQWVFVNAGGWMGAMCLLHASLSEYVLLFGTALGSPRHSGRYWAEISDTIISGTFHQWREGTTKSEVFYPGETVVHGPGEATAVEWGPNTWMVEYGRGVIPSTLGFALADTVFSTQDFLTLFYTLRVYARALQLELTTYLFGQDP

What is called Ki is a measure of affinity in units of concentration, obtained from inhibition or displacement. In the case of `C[C@H](CCN1CCCCC1)c1ccc(-c2ccccc2)cc1` [(R)-RC-33], the inhibition constant Ki in experiment [1] is 1.8 nM.

For `CN(CCOc1cc(COc2ccccc2)on1)C1CCC1` [Compound 7], in experiment [2], the “Ki, SERT” value was “NA (NA: not active, defined as <50% binding in the primary assay at 10 μM)”. Also, the “Effect on NGF-induced neurite outgrowth” value in experiment [3] is given as “synergistic neurite outgrowth effects at a level similar to that of the positive control RC-33”. Besides, in [4], the “Ki, DAT” value is recorded as “NA ^c (NA: not active, defined as <50% binding in the primary assay at 10 μM)”. Moreover, in experiment [5], the inhibitory constant (Ki) was 1.8 ± 0.2 nM. In addition, in experiment [6], the “Selectivity (Ki σ2/Ki σ1)” value came out at 171. The “Ki, NET” value in [7] was “NA (NA: not active, defined as <50% binding in the primary assay at 10 μM)”.

On to `Cl.Clc1cccc(OCc2cc(OCCNC3CCC3)no2)c1` [Compound 29, N-(2-((5-((3-Chlorophenoxy)methyl)isoxazol-3-yl)oxy)ethyl)cyclobutanamine hydrochloride], for which the inhibitory constant (Ki) in experiment [8] stood at 600 nM; in experiment [9], 64.5 ± 13.2 nM; in experiment [6] ([3H]-(+)-pentazocine, Guinea pig brain homogenate, mean ± SEM, three independent experiments), 0.4 ± 0.1 nM; in [11], 1520 nM. Further, the “Neurite outgrowth (neuritogenesis) effect” value in [10] is “preferable neurite outgrowth effects compared to the parent compound 7 and positive control RC-33; also recorded: significant neuritogenesis effects”. Moreover, the “Selectivity (Ki σ2/Ki σ1)” value in experiment [6] is given as 161.

As for `CCCN(CCC)CCc1ccc(OC)c(OCCc2ccccc2)c1` [NE-100], the Ki in experiment [12] was 212 nM; in experiment [1] it was 1.03 nM.

As to `O=C(OCCN1CCOCC1)C1(c2ccccc2)CCCCC1` [PRE-084], the Ki in experiment [12] was greater than 10000 nM.

On to `CC(CCN1CCCCC1)c1ccc(-c2ccccc2)cc1` (centres unmarked) [RC-33], for which the Ki was 103 nM in experiment [12] and 0.7 nM in [1].

On to `COc1ccc(CCN2CCN(CCCc3ccccc3)CC2)cc1OC` [SA4503], for which the Ki in [12] is 1800 nM; in experiment [1], 17 nM.
